Results from PubChem BioAssay AID248 (DTP/NCI, 2004).
Several values for one entry are separate records, joined by “and”; a condition that tells them apart may be missing. Identical values can stand only once. Inconclusive results and toxic doses are left out. No stated cut-off is given here; in the data, active means T/C of 150% or more; inactive means T/C below 125%.

Tested on: L1210 leukemia ip in BDF1 mice, survival T/C
Test: NCI In Vivo Anticancer Drug Screen. Data for tumor model L1210 Leukemia (intraperitoneal) in B6D2F1 (BDF1) mice
Details: endpoint: mean survival time, higher = longer survival
Procedure, shortened: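 Read-out is survival time, reported as the treated-group measurement over the vehicle-control measurement.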

[1] = dose: 100.0 mg/kg/injection, schedule: Q01DX001 (ip), vehicle: carboxymethylcellulose (CMC)
[2] = dose: 200.0 mg/kg/injection, schedule: Q01DX001 (ip), vehicle: carboxymethylcellulose (CMC)
[3] = dose: 100.0 mg/kg/injection, schedule: Q01DX009 (ip), vehicle: saline
[4] = dose: 50.0 mg/kg/injection, schedule: Q01DX009 (ip), vehicle: saline with Tween-80
[5] = dose: 100.0 mg/kg/injection, schedule: Q01DX009 (ip), vehicle: saline with Tween-80
[6] = dose: 200.0 mg/kg/injection, schedule: Q01DX009 (ip), vehicle: saline with Tween-80
[7] = dose: 100.0 mg/kg/injection, schedule: Q01DX001 (ip), vehicle: saline
[8] = dose: 200.0 mg/kg/injection, schedule: Q01DX001 (ip), vehicle: saline

Measured: T/C

NC(N)=N/C(N)=N\c1nn[nH]n1
inactive: dose: 100.0 mg/kg/injection, schedule: Q01DX001 (ip), vehicle: saline sonified 96 % of control | dose: 100.0 mg/kg/injection, schedule: Q01DX009 (ip), vehicle: saline sonified 91 % of control | dose: 200.0 mg/kg/injection, schedule: Q01DX001 (ip), vehicle: saline sonified 100 % of control | dose: 400.0 mg/kg/injection, schedule: Q01DX001 (ip), vehicle: saline sonified 93 % of control | dose: 400.0 mg/kg/injection, schedule: Q01DX009 (ip), vehicle: saline sonified 92 % of control

CC(=O)NCC(=O)O
inactive: dose: 100.0 mg/kg/injection, schedule: Q01DX001 (ip), vehicle: Klucel (hydroxypropylcellulose) (HPC) 113 % of control | dose: 200.0 mg/kg/injection, schedule: Q01DX001 (ip), vehicle: Klucel (hydroxypropylcellulose) (HPC) 95 % of control | dose: 300.0 mg/kg/injection, schedule: Q01DX001 (ip), vehicle: Klucel (hydroxypropylcellulose) (HPC) 94 % of control

COc1cccc(NC(=S)NN(C)C)c1
inactive: dose: 100.0 mg/kg/injection, schedule: Q04DX002 (ip), vehicle: Klucel (hydroxypropylcellulose) (HPC) 94 % of control | dose: 200.0 mg/kg/injection, schedule: Q04DX002 (ip), vehicle: Klucel (hydroxypropylcellulose) (HPC) 122 % of control | dose: 400.0 mg/kg/injection, schedule: Q04DX002 (ip), vehicle: Klucel (hydroxypropylcellulose) (HPC) 112 % of control

O=[N+]([O-])c1ccccc1Nc1ccccc1
inactive: [1] 91 % of control | [2] 89 % of control | dose: 400.0 mg/kg/injection, schedule: Q01DX001 (ip), vehicle: carboxymethylcellulose (CMC) 91 % of control

O=S(O)OS(=O)O
inactive: [3] 93 % of control | dose: 100.0 mg/kg/injection, schedule: Q04DX003 (ip), vehicle: saline 100 % of control | dose: 200.0 mg/kg/injection, schedule: Q01DX009 (ip), vehicle: saline 90 % of control | dose: 200.0 mg/kg/injection, schedule: Q04DX003 (ip), vehicle: saline 104 % of control | dose: 400.0 mg/kg/injection, schedule: Q01DX009 (ip), vehicle: saline 86 % of control | dose: 400.0 mg/kg/injection, schedule: Q04DX003 (ip), vehicle: saline 102 % of control

CC(C)NC(=O)Nc1ccc(F)cc1
inactive: dose: 100.0 mg/kg/injection, schedule: Q01DX009 (ip), vehicle: acetone 92 % of control | dose: 200.0 mg/kg/injection, schedule: Q01DX009 (ip), vehicle: acetone 101 % of control | dose: 400.0 mg/kg/injection, schedule: Q01DX009 (ip), vehicle: acetone 94 % of control

CC(=O)Nc1cccc2c1C(=O)c1c(c(O)c3ccccc3c1O)C2=O
inactive: dose: 0.12 mg/kg/injection, schedule: Q01DX009 (ip), vehicle: Klucel (hydroxypropylcellulose) (HPC) 101 % of control | dose: 0.25 mg/kg/injection, schedule: Q01DX009 (ip), vehicle: Klucel (hydroxypropylcellulose) (HPC) 100 % of control | dose: 0.25 mg/kg/injection, schedule: Q04DX003 (ip), vehicle: Klucel (hydroxypropylcellulose) (HPC) 97 % of control | dose: 0.5 mg/kg/injection, schedule: Q01DX009 (ip), vehicle: Klucel (hydroxypropylcellulose) (HPC) 102 % of control | dose: 0.5 mg/kg/injection, schedule: Q04DX003 (ip), vehicle: Klucel (hydroxypropylcellulose) (HPC) 97 % of control | dose: 1.0 mg/kg/injection, schedule: Q01DX009 (ip), vehicle: Klucel (hydroxypropylcellulose) (HPC) 97 % of control | dose: 1.0 mg/kg/injection, schedule: Q04DX003 (ip), vehicle: Klucel (hydroxypropylcellulose) (HPC) 97 % of control | dose: 2.0 mg/kg/injection, schedule: Q01DX009 (ip), vehicle: Klucel (hydroxypropylcellulose) (HPC) 98 % of control | dose: 2.0 mg/kg/injection, schedule: Q04DX003 (ip), vehicle: Klucel (hydroxypropylcellulose) (HPC) 101 % of control | dose: 2.0 mg/kg/injection, schedule: Q04DX003 (ip), vehicle: water 95 % of control | dose: 3.12 mg/kg/injection, schedule: Q01DX009 (ip), vehicle: saline with Tween-80 102 % of control | dose: 4.0 mg/kg/injection, schedule: Q01DX009 (ip), vehicle: Klucel (hydroxypropylcellulose) (HPC) 105 % of control | dose: 4.0 mg/kg/injection, schedule: Q04DX003 (ip), vehicle: water 100 % of control | dose: 6.25 mg/kg/injection, schedule: Q01DX009 (ip), vehicle: saline with Tween-80 100 % of control | dose: 8.0 mg/kg/injection, schedule: Q04DX003 (ip), vehicle: water 102 % of control | dose: 12.5 mg/kg/injection, schedule: Q01DX009 (ip), vehicle: saline with Tween-80 97 % of control | dose: 12.5 mg/kg/injection, schedule: Q04DX003 (ip), vehicle: saline with Tween-80 100 % of control | dose: 16.0 mg/kg/injection, schedule: Q04DX003 (ip), vehicle: water 96 % of control and 103 % of control | dose: 25.0 mg/kg/injection, schedule: Q01DX009 (ip), vehicle: saline with Tween-80 102 % of control | dose: 25.0 mg/kg/injection, schedule: Q04DX003 (ip), vehicle: saline with Tween-80 96 % of control | dose: 32.0 mg/kg/injection, schedule: Q04DX003 (ip), vehicle: water 96 % of control | [4] 96 % of control | dose: 50.0 mg/kg/injection, schedule: Q04DX003 (ip), vehicle: saline with Tween-80 103 % of control | dose: 64.0 mg/kg/injection, schedule: Q04DX003 (ip), vehicle: water 97 % of control | dose: 100.0 mg/kg/injection, schedule: Q04DX003 (ip), vehicle: saline with Tween-80 96 % of control

CC(C)C#C/C=C/C(C)C
inactive: [4] 95 % of control | [5] 95 % of control | [6] 103 % of control

Cc1cc(=O)[nH]c(N2CCCCC2)n1
inactive: [7] 111 % of control | [8] 95 % of control | dose: 400.0 mg/kg/injection, schedule: Q01DX001 (ip), vehicle: saline 101 % of control

CCN(CC)CCC#N
inactive: dose: 50.0 mg/kg/injection, schedule: Q01DX001 (ip), vehicle: saline 94 % of control | [7] 94 % of control | [8] 100 % of control

CCCc1c(O)ccc(C)c1C
inactive: dose: 100.0 mg/kg/injection, schedule: Q01DX001 (ip), vehicle: other 91 % of control | dose: 200.0 mg/kg/injection, schedule: Q01DX001 (ip), vehicle: other 103 % of control

CCOC(=O)N/N=C/c1ccccc1O
inactive: dose: 75.0 mg/kg/injection, schedule: Q01DX001 (ip), vehicle: carboxymethylcellulose (CMC) 103 % of control | dose: 150.0 mg/kg/injection, schedule: Q01DX001 (ip), vehicle: carboxymethylcellulose (CMC) 104 % of control | dose: 300.0 mg/kg/injection, schedule: Q01DX001 (ip), vehicle: carboxymethylcellulose (CMC) 97 % of control

COc1cc2c(cc1OC)/C(=C(\C#N)CCC(C)=O)NCC2
inactive: [1] 92 % of control | [2] 92 % of control

COc1ccc2c(C)[n+]3ccc4cc(OC)c(OC)cc4c3cc2c1 (tested in a mixture with another compound)
inactive: dose: 2.5 mg/kg/injection, schedule: Q01DX009 (ip), vehicle: saline 120 % of control | dose: 5.0 mg/kg/injection, schedule: Q01DX009 (ip), vehicle: saline 121 % of control | dose: 6.25 mg/kg/injection, schedule: Q01DX009 (ip), vehicle: saline 117 % of control | dose: 12.5 mg/kg/injection, schedule: Q01DX009 (ip), vehicle: saline 121 % of control | dose: 15.0 mg/kg/injection, schedule: Q01DX009 (ip), vehicle: saline 110 % of control | dose: 20.0 mg/kg/injection, schedule: Q01DX009 (ip), vehicle: saline 123 % of control | dose: 25.0 mg/kg/injection, schedule: Q01DX009 (ip), vehicle: saline 123 % of control | dose: 40.0 mg/kg/injection, schedule: Q01DX009 (ip), vehicle: saline 124 % of control | dose: 50.0 mg/kg/injection, schedule: Q01DX009 (ip), vehicle: saline 115 % of control | dose: 80.0 mg/kg/injection, schedule: Q01DX009 (ip), vehicle: saline 105 % of control | [3] 115 % of control | dose: 108.0 mg/kg/injection, schedule: Q01DX009 (ip), vehicle: saline 100 % of control

O=C(O)C1=CCCC1
inactive: dose: 222.0 mg/kg/injection, schedule: Q01DX Z (ip), vehicle: saline 103 % of control | dose: 333.0 mg/kg/injection, schedule: Q01DX Z (ip), vehicle: saline 102 % of control | dose: 500.0 mg/kg/injection, schedule: Q01DX Z (ip), vehicle: saline 96 % of control

COc1c2c(c(C(=O)O)c3ccncc13)CC(C)(C)C2
inactive: [4] 102 % of control | [5] 98 % of control | [6] 101 % of control

CCCCCCCCCCCCCCCCCCCCCCCC(=O)OCC
inactive: dose: 400.0 mg/kg/injection, schedule: Q04DX003 (ip), vehicle: saline with Tween-80 92 % of control
